Experimental data as given in US20250230138A1, “COMPOUNDS HAVING A T-STRUCTURE FORMED BY AT LEAST FOUR CYCLES FOR USE IN THE TREATMENT OF CANCER AND OTHER INDICATIONS” (TheRas, Inc., priority 2022, published 2025).

Legend:
[1] = molecular target: Cys242 in human PIK3CA (157-299) (Homo sapiens (Human), UniProt P42336); experiment: Covalent modification assay using MALDI-TOF MS; format: biochemical; details: 4 h reaction time point; 3.33 μM protein target, 1:7.5 protein to compound ratio (compounds 1-852)
Chain of Cys242 in human PIK3CA (157-299) (P42336 157-299): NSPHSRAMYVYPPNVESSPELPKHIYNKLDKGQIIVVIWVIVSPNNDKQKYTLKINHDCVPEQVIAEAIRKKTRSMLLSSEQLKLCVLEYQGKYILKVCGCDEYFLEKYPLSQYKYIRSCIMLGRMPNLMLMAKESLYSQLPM
Method in brief: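 Covalent adduct formation was read by linear-mode MALDI-TOF with sinapinic acid matrix, reported as modified-protein peak height divided by total protein peak heights. Reactions held PIK3CA (157-299) at 1 or 3.33 μM in HEPES/NaCl/MgCl2 buffer, pH 7.3, sampled after 15 min to 4 h at room temperature.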

pAKT in BT474 cells = experiment: Cell-based pAKT HTRF assay in BT474 cells; details: BT474 cells; 4 hr incubation; Compounds 10-999; read-out: pAKT inhibition IC50 in BT474 cells
Method in brief: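 Cells grown in DMEM with 10% FBS were exposed to compounds for 4 hr in 0.25% DMSO, using a 9-point, 3-fold dilution series that starts at 3 μM. Lysates were incubated with d2 and Eu Cryptate antibodies for 4–24 h at room temperature, and HTRF was read at 615 nm emission.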

Structure (SMILES)	IC50 (pAKT in BT474 cells)	% of modification [1]
C=C(F)C(=O)N1CCn2nc(-c3nc(-c4ccc5c(c4)CNC5=O)c4ccsc4c3-c3c(F)cc(F)cc3OC[C@@H](C)O)cc2C1 [Compound 517]	100 to 1000 nM	B (50%<percent of modification <75%)
C=CC(=O)N1CCc2nc(-c3nc(-c4ccc5c(c4)CCN(C)C5)c4ccsc4c3-c3c(F)cc(F)cc3OC(CF)CF)sc2C1 [Compound 522]	100 to 1000 nM	A (percent of modification of PIK3CA protein ≥75%)
C=C(F)C(=O)N1CCn2nc(-c3nc(-c4ccc5c(c4)CCN(C)C5)c4ccsc4c3-c3c(F)cc(F)cc3OCC(C)O)cc2C1 (centres unmarked) [Compound 527]	100 to 1000 nM	B (50%<percent of modification <75%)
C=CC(=O)N1CCn2nc(-c3nc(-c4ccc5c(c4)CNC5=O)c4ccsc4c3-c3c(F)cc(F)cc3OCCOC)cc2[C@@H]1C [Compound 545]	< 100 nM	A (percent of modification of PIK3CA protein ≥75%)
C=CC(=O)N1CCn2nc(-c3nc(-c4ccc5c(c4)CCN(C)C5)c4ccsc4c3-c3c(F)cc(F)cc3OC[C@@H](C)O)cc2[C@@H]1C [Compound 546]	< 100 nM	A (percent of modification of PIK3CA protein ≥75%)
C=CC(=O)N1CCn2nc(-c3nc(-c4cnn(C)c4)c4ccsc4c3-c3c(F)cc(F)cc3OC[C@@H](C)O)cc2[C@@H]1C [Compound 547]	< 100 nM	A (percent of modification of PIK3CA protein ≥75%)
C=CC(=O)N1CCn2nc(-c3nc(-c4ccc5c(c4)CCN(C)C5)c4ccsc4c3-c3c(F)cc(F)cc3OC3CC3)cc2[C@@H]1C [Compound 548]	< 100 nM	A (percent of modification of PIK3CA protein ≥75%)
C=CC(=O)N1CCn2nc(-c3nc(-c4ccc5c(c4)CCN(C)C5)c4ccsc4c3-c3c(F)cc(F)cc3OC3CC3)cc2C1C (centres unmarked) [Compound 549]	< 100 nM	A (percent of modification of PIK3CA protein ≥75%)
C=CC(=O)N1CCn2nc(-c3nc(-c4ccc5c(c4)CCN(C)C5)c4ccsc4c3-c3c(F)cc(F)cc3OCC(C)O)cc2C1C (centres unmarked) [Compound 550]	< 100 nM	A (percent of modification of PIK3CA protein ≥75%)
C=CC(=O)N1CCn2nc(-c3nc(-c4cnn(C)c4)c4ccsc4c3-c3c(F)cc(F)cc3OCC(C)O)cc2C1C (centres unmarked) [Compound 551]	< 100 nM	A (percent of modification of PIK3CA protein ≥75%)
C=CC(=O)N1CCn2nc(-c3nc(-c4ccc5ncn(C)c5c4)c4ccsc4c3-c3c(F)cc(F)cc3OCCOC)cc2C1C (centres unmarked) [Compound 552]	< 100 nM	A (percent of modification of PIK3CA protein ≥75%)
C=CC(=O)N1CCn2nc(-c3nc(-c4cnc5c(c4)CN(C)C5=O)c4ccsc4c3-c3c(F)cc(F)cc3OCCOC)cc2C1C (centres unmarked) [Compound 553]	< 100 nM	A (percent of modification of PIK3CA protein ≥75%)
C=CC(=O)N1Cc2cc(-c3nc(-c4cnc5c(c4)CNC5=O)c4ccsc4c3-c3c(F)cc(F)cc3OCCOC)nn2CC1C (centres unmarked) [Compound 554]	< 100 nM	A (percent of modification of PIK3CA protein ≥75%)
C=CC(=O)N1Cc2cc(-c3nc(-c4ccc5c(c4)CCN(C)C5)c4ccsc4c3-c3c(F)cc(F)cc3OC(C)C)nn2C(C)C1 (centres unmarked) [Compound 555]	100 to 1000 nM	D (percent of modification <25%)
C=CC(=O)N1Cc2cc(-c3nc(-c4ccc5c(c4)CCN(C)C5)c4ccsc4c3-c3c(F)cc(F)cc3OC(C)C)nn2C(C)C1 (centres unmarked) [Compound 556]	< 100 nM	A (percent of modification of PIK3CA protein ≥75%)
C=CC(=O)N1Cc2cc(-c3nc(-c4ccc5c(c4)CCN(C)C5)c4ccsc4c3-c3c(F)cc(F)cc3OCCOC)nn2C(C)C1 (centres unmarked) [Compound 558]	100 to 1000 nM	D (percent of modification <25%)
C=CC(=O)N1Cc2cc(-c3nc(-c4ccc5c(c4)CCN(C)C5)c4ccsc4c3-c3c(F)cc(F)cc3OCCOC)nn2[C@@H](C)C1 [Compound 560]	< 100 nM	A (percent of modification of PIK3CA protein ≥75%)

Second part, led by results:

IC50 (pAKT in BT474 cells)	Structure (SMILES)	% of modification [1]
< 100 nM	C=CC(=O)N1CCc2nc(-c3nc(-c4cnc5c(c4)CCN(C)C5)c4ccsc4c3-c3c(F)cc(F)cc3OC(C)C)sc2C1 [Compound 518]	A (percent of modification of PIK3CA protein ≥75%)
< 100 nM	C=CC(=O)N1Cc2cc(-c3nc(-c4cnn(C)c4)c4ccsc4c3-c3c(F)cc(F)cc3OCCO)nn2[C@@H](C)C1 [Compound 519]	A (percent of modification of PIK3CA protein ≥75%)
< 100 nM	C=CC(=O)N1CCn2nc(-c3nc(-c4ccc5c(c4)CNC5=O)c4ccsc4c3-c3c(F)cc(F)cc3OCCOC)cc2[C@H]1C [Compound 520]	A (percent of modification of PIK3CA protein ≥75%)
< 100 nM	C=CC(=O)N1CCc2nc(-c3nc(-c4cnc5c(c4)CCN(C)C5)c4ccsc4c3-c3c(F)cc(F)cc3OCCOC)sc2C1 [Compound 521]	A (percent of modification of PIK3CA protein ≥75%)
< 100 nM	C=CC(=O)N1Cc2cc(-c3nc(-c4ccc5nn(C)cc5c4)c4ccsc4c3-c3c(F)cc(F)cc3OC(C)C)nn2C[C@H]1C [Compound 525]	A (percent of modification of PIK3CA protein ≥75%)
< 100 nM	C=CC(=O)N1CCn2nc(-c3nc(-c4ccc(CN5CC(F)(F)C5)nc4)c4ccsc4c3-c3c(F)cc(F)cc3OCCOC)cc2[C@H]1C [Compound 529]	A (percent of modification of PIK3CA protein ≥75%)
< 100 nM	C=CC(=O)N1Cc2cc(-c3nc(-c4ccc5nn(C)cc5c4)c4ccsc4c3-c3c(F)cc(F)cc3OC(C)C)nn2CC1C (centres unmarked) [Compound 530]	A (percent of modification of PIK3CA protein ≥75%)
< 100 nM	C=CC(=O)N1CCn2nc(-c3nc(-c4cnn(C)c4)c4ccsc4c3-c3c(F)cc(F)cc3OCCO)cc2C1C (centres unmarked) [Compound 532]	A (percent of modification of PIK3CA protein ≥75%)
< 100 nM	C=CC(=O)N1CCn2nc(-c3nc(-c4ccc5c(c4)CCN(C)C5)c4ccsc4c3-c3c(F)cc(F)cc3OCCO)cc2C1C (centres unmarked) [Compound 533]	A (percent of modification of PIK3CA protein ≥75%)
< 100 nM	C=CC(=O)N1Cc2cc(-c3nc(-c4cnn(C)c4)c4ccsc4c3-c3c(F)cc(F)cc3OCCO)nn2CC1C (centres unmarked) [Compound 534]	A (percent of modification of PIK3CA protein ≥75%)
< 100 nM	C=CC(=O)N1CCn2nc(-c3nc(-c4ccc5c(c4)CCN(C)C5)c4ccsc4c3-c3c(F)cc(F)cc3OCCO)cc2C1C (centres unmarked) [Compound 537]	A (percent of modification of PIK3CA protein ≥75%)
< 100 nM	C=CC(=O)N1CCn2nc(-c3nc(-c4cnn(C)c4)c4ccsc4c3-c3c(F)cc(F)cc3OCCO)cc2C1C (centres unmarked) [Compound 538]	A (percent of modification of PIK3CA protein ≥75%)
< 100 nM	C=CC(=O)N1CCn2nc(-c3nc(-c4ccc5c(c4)CN(C)C5=O)c4ccsc4c3-c3c(F)cc(F)cc3OCCOC)cc2[C@H]1C [Compound 539]	A (percent of modification of PIK3CA protein ≥75%)
< 100 nM	C=CC(=O)N1CCn2nc(-c3nc(-c4ccc5c(c4)CCN(C)C5)c4ccsc4c3-c3c(F)cc(F)cc3OCCOC)cc2[C@@H]1C [Compound 544]	A (percent of modification of PIK3CA protein ≥75%)
